In patent US10874643B2 (priority 2015, dated 2020):

What was measured:
5-HT1D(h) = biological target: T1, 5-HT1D(h) (Homo sapiens, UniProt P28221); experiment: CEREP BioPrint binding; settings: 1.0E-05M; agonist radioligand
T1 construct: CEREP (contract assay panel)
Procedure: (§1) Clemizole (149934-L6) was tested in the CEREP BioPrint Profile, which is apanel of 139 different in vitro receptor binding and enzyme assays. For the initial BioPrint screen, afree compound concentration of 10 μM (LOE-5 M) was used. Compound binding was calculated as a % inhibition of the binding of aradioactively labeled ligand specific for each target. Compound enzyme inhibition effect was calculated as a % inhibition of control enzyme activity. In each experiment, the respective reference compound was tested concurrently with Clemizole (149934-L6), and the data were compared with historical values determined at CEREP. The experiment was accepted in accordance with CEREP's validation Standard Operating Procedure. Results showing an inhibition (or stimulation for assays run in basal conditions) higher than 50% are considered to represent significant effects of the test compounds.

SK-Ca channel = experiment: CEREP BioPrint binding; settings: 1.0E-05M
Procedure: as §1

5-HT1B(h) = biological target: T2, 5-HT1B(h) (Homo sapiens, UniProt P28222); experiment: CEREP BioPrint binding; settings: 1.0E-05M; agonist radioligand
T2 construct: CEREP (contract assay panel)
T2 sequence (P28222 whole entry): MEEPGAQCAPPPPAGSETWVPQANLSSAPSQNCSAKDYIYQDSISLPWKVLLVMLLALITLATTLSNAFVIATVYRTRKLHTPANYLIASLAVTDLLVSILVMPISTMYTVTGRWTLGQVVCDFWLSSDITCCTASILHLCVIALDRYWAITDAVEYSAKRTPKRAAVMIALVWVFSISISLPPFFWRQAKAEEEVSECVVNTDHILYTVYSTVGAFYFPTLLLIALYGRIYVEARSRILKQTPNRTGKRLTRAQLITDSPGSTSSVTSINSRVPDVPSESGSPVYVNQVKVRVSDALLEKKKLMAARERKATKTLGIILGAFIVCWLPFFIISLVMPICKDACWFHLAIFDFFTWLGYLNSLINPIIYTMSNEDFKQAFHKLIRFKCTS
Procedure: as §1

GABAB(1b)(h) = biological target: T3, GABAB(1b)(h) (Homo sapiens, UniProt Q9UBS5); experiment: CEREP BioPrint binding; settings: 1.0E-05M; agonist radioligand
T3 construct: CEREP (contract assay panel)
T3 sequence (Q9UBS5 1-844 isoform Q9UBS5-2): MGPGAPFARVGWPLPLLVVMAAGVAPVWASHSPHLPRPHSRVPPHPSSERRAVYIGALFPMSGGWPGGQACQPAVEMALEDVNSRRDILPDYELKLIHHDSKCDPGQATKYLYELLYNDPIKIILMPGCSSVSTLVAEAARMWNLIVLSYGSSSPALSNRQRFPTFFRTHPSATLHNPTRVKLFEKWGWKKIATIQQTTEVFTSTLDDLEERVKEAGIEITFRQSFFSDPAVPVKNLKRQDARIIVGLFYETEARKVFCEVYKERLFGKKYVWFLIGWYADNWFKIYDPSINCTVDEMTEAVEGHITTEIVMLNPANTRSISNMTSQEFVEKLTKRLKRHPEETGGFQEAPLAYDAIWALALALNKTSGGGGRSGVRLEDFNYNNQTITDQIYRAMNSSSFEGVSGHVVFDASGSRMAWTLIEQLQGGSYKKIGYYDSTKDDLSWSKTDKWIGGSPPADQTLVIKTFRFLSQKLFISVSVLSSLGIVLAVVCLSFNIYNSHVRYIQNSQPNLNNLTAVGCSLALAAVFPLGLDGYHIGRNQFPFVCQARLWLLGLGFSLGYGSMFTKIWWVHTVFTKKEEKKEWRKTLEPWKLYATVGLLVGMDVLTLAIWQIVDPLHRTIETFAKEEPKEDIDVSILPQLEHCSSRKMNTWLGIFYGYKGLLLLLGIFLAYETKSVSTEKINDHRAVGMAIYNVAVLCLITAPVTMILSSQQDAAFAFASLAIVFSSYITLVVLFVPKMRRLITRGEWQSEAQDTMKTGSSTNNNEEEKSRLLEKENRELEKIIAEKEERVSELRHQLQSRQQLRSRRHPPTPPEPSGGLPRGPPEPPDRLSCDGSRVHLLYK
Procedure: as §1

GABA transporter = experiment: CEREP BioPrint binding; settings: 1.0E-05M
Procedure: as §1

BZD (central) = experiment: CEREP BioPrint binding; settings: 1.0E-05M; agonist radioligand
Procedure: as §1

CB1(h) = biological target: T4, CB1(h) (Homo sapiens, UniProt P21554); experiment: CEREP BioPrint binding; settings: 1.0E-05M; agonist radioligand
T4 construct: CEREP (contract assay panel)
T4 sequence (P21554 whole entry): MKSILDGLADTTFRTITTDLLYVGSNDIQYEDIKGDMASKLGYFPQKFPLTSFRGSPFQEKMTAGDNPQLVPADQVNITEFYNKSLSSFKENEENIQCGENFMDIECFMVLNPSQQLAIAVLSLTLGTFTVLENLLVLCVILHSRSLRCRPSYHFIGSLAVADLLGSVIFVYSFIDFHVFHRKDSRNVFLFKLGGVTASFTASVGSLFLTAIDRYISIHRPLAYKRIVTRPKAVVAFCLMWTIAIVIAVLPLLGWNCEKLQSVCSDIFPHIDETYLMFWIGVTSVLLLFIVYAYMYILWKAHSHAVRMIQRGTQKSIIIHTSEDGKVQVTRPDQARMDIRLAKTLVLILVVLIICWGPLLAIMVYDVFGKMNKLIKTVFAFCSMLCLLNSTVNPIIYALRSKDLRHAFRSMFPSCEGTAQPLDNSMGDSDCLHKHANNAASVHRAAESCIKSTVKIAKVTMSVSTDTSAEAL
Procedure: as §1

GABAA1(h) = biological target: T5, GABAA1(h) (Homo sapiens, UniProt P14867+P47870); experiment: CEREP BioPrint binding; settings: 1.0E-05M; agonist radioligand
T5 construct: CEREP (contract assay panel)
T5 sequence (P14867 28-456): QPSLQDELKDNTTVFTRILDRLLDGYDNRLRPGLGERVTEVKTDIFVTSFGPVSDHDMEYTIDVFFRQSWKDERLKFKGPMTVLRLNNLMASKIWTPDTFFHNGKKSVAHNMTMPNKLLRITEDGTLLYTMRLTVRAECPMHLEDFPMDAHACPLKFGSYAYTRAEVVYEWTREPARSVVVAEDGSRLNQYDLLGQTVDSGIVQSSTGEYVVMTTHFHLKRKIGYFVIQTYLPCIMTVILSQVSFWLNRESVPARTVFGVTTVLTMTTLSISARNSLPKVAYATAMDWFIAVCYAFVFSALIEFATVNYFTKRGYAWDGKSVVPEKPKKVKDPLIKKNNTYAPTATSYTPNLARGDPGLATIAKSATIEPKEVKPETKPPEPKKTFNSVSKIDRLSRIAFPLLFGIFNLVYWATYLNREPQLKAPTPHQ
T5 sequence (P47870 25-512 limits assumed): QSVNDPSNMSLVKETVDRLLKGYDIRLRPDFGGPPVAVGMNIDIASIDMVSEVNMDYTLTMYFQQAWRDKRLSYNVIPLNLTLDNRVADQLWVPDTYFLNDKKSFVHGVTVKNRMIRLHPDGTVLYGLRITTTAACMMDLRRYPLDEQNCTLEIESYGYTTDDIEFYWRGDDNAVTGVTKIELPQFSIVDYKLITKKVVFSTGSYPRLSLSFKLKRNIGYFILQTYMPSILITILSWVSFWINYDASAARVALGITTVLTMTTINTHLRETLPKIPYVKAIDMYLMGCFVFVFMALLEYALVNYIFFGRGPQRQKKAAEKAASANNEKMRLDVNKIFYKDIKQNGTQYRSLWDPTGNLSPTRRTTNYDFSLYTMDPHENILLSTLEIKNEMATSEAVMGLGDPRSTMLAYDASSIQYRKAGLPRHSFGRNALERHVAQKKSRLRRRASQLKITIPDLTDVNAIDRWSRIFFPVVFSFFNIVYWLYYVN
T5 sequence (P18507 40-467 partner limits assumed): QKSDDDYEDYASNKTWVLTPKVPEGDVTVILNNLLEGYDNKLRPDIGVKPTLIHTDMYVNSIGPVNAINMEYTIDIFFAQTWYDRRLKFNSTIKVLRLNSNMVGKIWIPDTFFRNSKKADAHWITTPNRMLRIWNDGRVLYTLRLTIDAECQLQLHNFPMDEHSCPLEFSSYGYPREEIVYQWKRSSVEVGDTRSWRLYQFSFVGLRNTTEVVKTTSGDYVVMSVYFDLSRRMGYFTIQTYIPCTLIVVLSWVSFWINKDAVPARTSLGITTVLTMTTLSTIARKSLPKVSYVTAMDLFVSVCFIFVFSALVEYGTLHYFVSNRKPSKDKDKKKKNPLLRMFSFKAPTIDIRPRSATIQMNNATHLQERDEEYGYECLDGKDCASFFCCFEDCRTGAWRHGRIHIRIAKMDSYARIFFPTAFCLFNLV
Procedure: as §1

5-HT1A(h) = biological target: T6, 5-HT1A(h) (Homo sapiens, UniProt P08908); experiment: CEREP BioPrint binding; settings: 1.0E-05M; agonist radioligand
T6 construct: CEREP (contract assay panel)
T6 sequence (P08908 1-422): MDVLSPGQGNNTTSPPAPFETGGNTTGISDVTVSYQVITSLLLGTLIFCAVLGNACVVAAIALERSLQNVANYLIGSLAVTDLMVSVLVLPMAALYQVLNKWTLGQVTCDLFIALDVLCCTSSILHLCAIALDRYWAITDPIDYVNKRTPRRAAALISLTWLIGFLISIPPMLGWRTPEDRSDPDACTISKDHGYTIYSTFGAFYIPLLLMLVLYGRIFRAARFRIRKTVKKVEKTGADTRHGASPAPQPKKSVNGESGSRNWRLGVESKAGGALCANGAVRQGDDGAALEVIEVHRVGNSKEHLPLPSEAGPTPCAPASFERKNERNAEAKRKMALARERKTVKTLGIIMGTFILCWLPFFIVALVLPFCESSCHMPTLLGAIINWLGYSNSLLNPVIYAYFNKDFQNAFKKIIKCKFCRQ
Procedure: as §1

5-HT2A(h) = biological target: T7, 5-HT2A(h) (Homo sapiens, UniProt P28223); experiment: CEREP BioPrint binding; settings: 1.0E-05M; agonist radioligand
T7 construct: CEREP (contract assay panel)
T7 sequence (P28223 whole entry): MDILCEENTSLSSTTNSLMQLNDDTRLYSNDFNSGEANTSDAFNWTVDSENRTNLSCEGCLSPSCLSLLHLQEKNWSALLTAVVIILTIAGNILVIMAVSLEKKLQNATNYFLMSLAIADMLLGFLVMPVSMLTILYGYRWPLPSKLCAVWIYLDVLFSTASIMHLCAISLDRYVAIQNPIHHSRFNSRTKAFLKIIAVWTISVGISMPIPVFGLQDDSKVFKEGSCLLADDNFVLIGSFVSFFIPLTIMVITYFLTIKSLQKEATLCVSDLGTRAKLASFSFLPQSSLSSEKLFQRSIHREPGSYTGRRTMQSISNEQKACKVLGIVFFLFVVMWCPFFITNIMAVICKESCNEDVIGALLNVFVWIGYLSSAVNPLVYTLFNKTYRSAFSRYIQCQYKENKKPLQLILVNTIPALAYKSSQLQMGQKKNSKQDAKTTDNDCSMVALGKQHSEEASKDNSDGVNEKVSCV
Procedure: as §1

5-HT3(h) = biological target: T8, 5-HT3(h) (Homo sapiens, UniProt P46098); experiment: CEREP BioPrint binding; settings: 1.0E-05M; agonist radioligand
T8 construct: CEREP (contract assay panel)
T8 sequence (P46098 24-478): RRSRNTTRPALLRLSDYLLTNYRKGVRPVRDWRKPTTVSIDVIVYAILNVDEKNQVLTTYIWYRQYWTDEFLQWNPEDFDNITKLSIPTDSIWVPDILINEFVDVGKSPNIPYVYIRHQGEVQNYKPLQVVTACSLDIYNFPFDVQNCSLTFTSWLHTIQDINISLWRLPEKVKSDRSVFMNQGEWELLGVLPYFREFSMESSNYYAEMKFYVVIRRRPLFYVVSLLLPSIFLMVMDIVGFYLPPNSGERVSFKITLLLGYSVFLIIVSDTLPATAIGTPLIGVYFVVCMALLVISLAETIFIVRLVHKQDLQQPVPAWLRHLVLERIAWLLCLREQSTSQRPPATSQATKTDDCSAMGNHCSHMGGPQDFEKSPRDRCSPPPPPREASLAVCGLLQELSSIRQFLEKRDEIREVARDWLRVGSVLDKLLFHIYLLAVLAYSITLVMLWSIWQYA
Procedure: as §1

GABA-gated Cl channel = experiment: CEREP BioPrint binding; settings: 1.0E-05M
Procedure: as §1

5-HT2B(h) = biological target: T9, 5-HT2B(h) (Homo sapiens, UniProt P41595); experiment: CEREP BioPrint binding; settings: 1.0E-05M; agonist radioligand
T9 construct: CEREP (contract assay panel)
T9 sequence (P41595 whole entry): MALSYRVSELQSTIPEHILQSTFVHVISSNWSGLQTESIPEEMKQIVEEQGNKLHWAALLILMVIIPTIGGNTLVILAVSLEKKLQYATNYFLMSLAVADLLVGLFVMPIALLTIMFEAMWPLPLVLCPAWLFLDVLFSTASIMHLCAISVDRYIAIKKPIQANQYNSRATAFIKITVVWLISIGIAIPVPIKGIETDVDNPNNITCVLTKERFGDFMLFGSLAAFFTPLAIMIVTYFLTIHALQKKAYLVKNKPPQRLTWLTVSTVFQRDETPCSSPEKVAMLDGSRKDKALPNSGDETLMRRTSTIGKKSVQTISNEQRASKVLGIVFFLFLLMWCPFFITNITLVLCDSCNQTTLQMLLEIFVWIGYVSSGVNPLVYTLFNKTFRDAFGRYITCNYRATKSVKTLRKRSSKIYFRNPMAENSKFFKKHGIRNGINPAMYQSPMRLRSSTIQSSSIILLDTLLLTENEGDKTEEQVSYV
Procedure: as §1

5-HT4e(h) = biological target: T10, 5-HT4e(h) (Homo sapiens, UniProt Q13639); experiment: CEREP BioPrint binding; settings: 1.0E-05M; agonist radioligand
T10 construct: CEREP (contract assay panel)
T10 sequence (Q13639 1-378 isoform Q13639-5): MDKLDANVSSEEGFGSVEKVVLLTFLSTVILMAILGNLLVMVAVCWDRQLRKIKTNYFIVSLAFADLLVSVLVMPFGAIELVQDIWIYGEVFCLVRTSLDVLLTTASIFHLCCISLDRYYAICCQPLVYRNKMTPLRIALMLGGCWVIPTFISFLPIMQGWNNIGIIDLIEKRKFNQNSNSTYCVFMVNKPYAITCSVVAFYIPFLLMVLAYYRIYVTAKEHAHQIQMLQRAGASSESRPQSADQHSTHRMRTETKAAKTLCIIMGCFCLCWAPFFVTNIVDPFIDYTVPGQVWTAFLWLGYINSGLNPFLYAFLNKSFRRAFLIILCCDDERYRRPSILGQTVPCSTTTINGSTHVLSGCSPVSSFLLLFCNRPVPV
Procedure: as §1

CB2(h) = biological target: T11, CB2(h) (Homo sapiens, UniProt P34972); experiment: CEREP BioPrint binding; settings: 1.0E-05M; agonist radioligand
T11 construct: CEREP (contract assay panel)
T11 sequence (P34972 whole entry): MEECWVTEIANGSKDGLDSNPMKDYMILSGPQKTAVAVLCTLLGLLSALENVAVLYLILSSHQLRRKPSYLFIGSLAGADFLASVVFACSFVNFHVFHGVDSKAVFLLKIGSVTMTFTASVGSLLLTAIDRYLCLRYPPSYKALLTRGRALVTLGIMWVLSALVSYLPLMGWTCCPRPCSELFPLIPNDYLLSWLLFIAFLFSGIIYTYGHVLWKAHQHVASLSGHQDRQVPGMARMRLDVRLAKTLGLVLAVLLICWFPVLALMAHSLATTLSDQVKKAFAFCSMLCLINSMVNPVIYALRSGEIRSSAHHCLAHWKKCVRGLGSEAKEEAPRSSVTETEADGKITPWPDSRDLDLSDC
Procedure: as §1

[1] = system: WT zebrafish exposed to 15 mM pentylenetetrazole; experiment: PTZ-induced seizure behavior in wild-type larvae (locomotion); assay type: in vivo; settings: 100 μM; 15 mM PTZ; n=10
scn1Lab mutants [2] = assay type: in vivo, zebrafish
scn1Lab mutants [3] = experiment: Locomotion tracking assay of seizure behavior (96-well format)

T1 sequence (P28221 whole entry): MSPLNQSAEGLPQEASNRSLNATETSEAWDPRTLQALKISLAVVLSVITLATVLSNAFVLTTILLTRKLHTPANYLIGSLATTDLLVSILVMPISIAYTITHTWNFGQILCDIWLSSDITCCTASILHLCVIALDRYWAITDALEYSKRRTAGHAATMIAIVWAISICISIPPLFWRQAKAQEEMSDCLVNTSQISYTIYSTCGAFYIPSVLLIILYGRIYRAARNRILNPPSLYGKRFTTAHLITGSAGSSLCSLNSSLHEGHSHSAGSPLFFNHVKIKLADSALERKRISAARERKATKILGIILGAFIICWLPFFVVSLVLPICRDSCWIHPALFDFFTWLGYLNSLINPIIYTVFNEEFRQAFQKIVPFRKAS

Clc1ccc(Cn2c(CN3CCCC3)nc3ccccc32)cc1 [Clemizole]
% inhibition of the binding of a radioactively labeled ligand, 5-HT1D(h) (5-HT1D(h)): 22.7%
% inhibition of the binding of a radioactively labeled ligand, SK-Ca channel (SK-Ca channel): −0.2%
% inhibition of the binding of a radioactively labeled ligand, 5-HT1B(h) (5-HT1B(h)): 4.4%
% inhibition of the binding of a radioactively labeled ligand, GABAB(1b)(h) (GABAB(1b)(h)): −5.9%
% inhibition of the binding of a radioactively labeled ligand, GABA transporter (GABA transporter): −5.9%
% inhibition of the binding of a radioactively labeled ligand, BZD (central) (BZD (central)): −19.6%
% inhibition of the binding of a radioactively labeled ligand, CB1(h) (CB1(h)): 17.9%
% inhibition of the binding of a radioactively labeled ligand, GABAA1(h) (GABAA1(h)): −9.6%
% inhibition of the binding of a radioactively labeled ligand, 5-HT1A(h) (5-HT1A(h)): 19.5%
% inhibition of the binding of a radioactively labeled ligand, 5-HT2A(h) (5-HT2A(h)): 86%
% inhibition of the binding of a radioactively labeled ligand, 5-HT3(h) (5-HT3(h)): 9.8%
% inhibition of the binding of a radioactively labeled ligand, GABA-gated Cl channel (GABA-gated Cl channel): 24.9%
% inhibition of the binding of a radioactively labeled ligand, 5-HT2B(h) (5-HT2B(h)): 82.5%
% inhibition of the binding of a radioactively labeled ligand, 5-HT4e(h) (5-HT4e(h)): −1.0%
% inhibition of the binding of a radioactively labeled ligand, CB2(h) (CB2(h)): 28.4%
seizure behavior [1]: effective in reducing seizure behavior
forebrain electrographic seizure activity in the same mutants after the locomotion assay (scn1Lab mutants [2]; 100 μM, mutant embedded in agar): effective in suppressing spontaneous seizure activity
burst duration (scn1Lab mutants [2]; clemizole-treated mutants (100 μM), n=7, un-treated mutants 926±414): 154 ± 127 ms
burst frequency (scn1Lab mutants [2]; mutants exposed to clemizole first in locomotion assay (100 μM), n=7, un-treated mutants 1.5±0.3): 0.2±0.01 bursts/min
swim activity / seizure behavior, third evaluation (scn1Lab mutants [3]; 100 μM, 10 fish per trial): effective in suppressing spontaneous seizure activity
seizure-induced swim activity and mean velocity, re-test on separate clutch (scn1Lab mutants [3]; 667, 67 and 6.7 μM): effective in reducing seizure-induced swim activity and mean velocity
effect on seizure behavior (scn1Lab mutants [3]; concentrations between 6.25 and 50 μM, n=33): no significant effect
